Test results from ChEMBL document CHEMBL1201862, “PubChem BioAssay data set” (2004).
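Five concentrations, 48 hours, 96-well plates. GI50 = concentration required for 50% inhibition of growth.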 The source made the active and inactive calls. Cut-off read from the data, not from the text of the source: active = GI50 up to about 1.1 µM and inactive = higher.

Tests used:
Assay in all cases: NCI anticancer screen, dose series, 48 h
[1] = test system: A549
[2] = test system: LOX IMVI
[3] = test system: PC-3
[4] = test system: SF-268
[5] = test system: NCI-H460
[6] = test system: HCC 2998
[7] = test system: SW-620
[8] = test system: CAKI-1
[9] = test system: TK-10
[10] = test system: SK-MEL-5
[11] = test system: SNB-19
[12] = test system: OVCAR-4
[13] = test system: HT-29
[14] = test system: COLO 205
[15] = test system: HCT-15
[16] = test system: OVCAR-3
[17] = test system: IGROV-1
[18] = test system: SR
[19] = test system: Hs-578T
[20] = test system: MOLT-4
[21] = test system: K562
[22] = test system: KM12
[23] = test system: U-251
[24] = test system: T47D
[25] = test system: SF-539
[26] = test system: SK-MEL-28
[27] = test system: MDA-N
[28] = test system: HL-60
[29] = test system: MDA-MB-435
[30] = test system: MDA-MB-231
[31] = test system: RPMI-8226
[32] = test system: UACC-62
[33] = test system: SK-OV-3
[34] = test system: CCRF-CEM
[35] = test system: UO-31
[36] = test system: SNB-75
[37] = test system: HOP-62
[38] = test system: A498
[39] = test system: ACHN
[40] = test system: Malme-3M
[41] = test system: NCI/ADR-RES
[42] = test system: 786-0
[43] = test system: OVCAR-5
[44] = test system: DU-145
[45] = test system: NCI-H522
[46] = test system: NCI-H23
[47] = test system: NCI-H226
[48] = test system: EKVX
[49] = test system: UACC-257
[50] = test system: SN12C
[51] = test system: RXF 393
[52] = test system: SK-MEL-2
[53] = test system: OVCAR-8
[54] = test system: SF-295
[55] = test system: HCT-116
[56] = test system: M14
[57] = test system: MCF7

In the case of `CC(=O)O[C@H]1C(=O)[C@@]2(C)C(C(OC(=O)c3ccccc3)[C@]3(O)CC(OC(=O)[C@H](OC(=O)CCC(=O)O)C(NC(=O)c4ccccc4)c4ccccc4)C(C)=C1C3(C)C)C1(OC(C)=O)COC1C[C@@H]2O` (some centres not stated), the GI50 [1] is reported as < 0.0199 µM (active), the GI50 [2] is reported as < 0.0122 µM (active) and the GI50 [3] is reported as < 0.01 µM (active). For the same molecule, the GI50 [4] was < 0.0166 µM (active), the GI50 [5] was < 0.01 µM (active) and the GI50 [6] was 0.0191 µM (active). The GI50 [7] was < 0.01 µM (active), the GI50 [8] was 3.75 µM (inactive) and the GI50 [9] was 0.265 µM (active). For the same molecule, the GI50 [10] was < 0.01 µM (active), the GI50 [11] was 0.0306 µM (active) and the GI50 [12] was 17.1 µM (inactive). The GI50 [13] was < 0.01 µM (active), the GI50 [14] was < 0.01 µM (active) and the GI50 [15] was 1.53 µM. The GI50 [16] was < 0.01 µM (active), the GI50 [17] was 0.0103 µM (active) and the GI50 [18] was < 0.01 µM (active). For the same molecule, the GI50 [19] was < 0.01 µM (active), the GI50 [20] was < 0.0156 µM (active) and the GI50 [21] was < 0.01 µM (active). The GI50 [22] was < 0.01 µM (active), the GI50 [23] was < 0.01 µM (active) and the GI50 [24] was < 0.0203 µM (active).
In the case of `O=C(c1ccccc1)N1C(=S)NC(=N/c2ccccc2)/C1=N\c1ccccc1`, the GI50 [1] is reported as > 100 µM (inactive), the GI50 [2] is reported as > 100 µM (inactive) and the GI50 [3] is reported as > 100 µM (inactive). The GI50 [25] was > 100 µM (inactive), the GI50 [4] was > 100 µM (inactive) and the GI50 [5] was > 100 µM (inactive). For the same molecule, the GI50 [26] was > 100 µM (inactive), the GI50 [27] was > 100 µM (inactive) and the GI50 [6] was > 100 µM (inactive). For the same molecule, the GI50 [28] was > 100 µM (inactive), the GI50 [29] was > 100 µM (inactive) and the GI50 [30] was > 100 µM (inactive). For the same molecule, the GI50 [31] was > 100 µM (inactive), the GI50 [7] was > 100 µM (inactive) and the GI50 [8] was > 100 µM (inactive). The GI50 [32] was > 100 µM (inactive), the GI50 [33] was > 100 µM (inactive) and the GI50 [34] was > 100 µM (inactive). The GI50 [35] was > 100 µM (inactive), the GI50 [9] was > 100 µM (inactive) and the GI50 [36] was > 100 µM (inactive). The GI50 [10] was > 100 µM (inactive), the GI50 [37] was > 100 µM (inactive) and the GI50 [38] was > 100 µM (inactive). For the same molecule, the GI50 [11] was > 100 µM (inactive), the GI50 [39] was > 100 µM (inactive) and the GI50 [12] was > 100 µM (inactive). For the same molecule, the GI50 [40] was > 100 µM (inactive), the GI50 [13] was > 100 µM (inactive) and the GI50 [41] was > 100 µM (inactive). For the same molecule, the GI50 [42] was > 100 µM (inactive), the GI50 [43] was > 100 µM (inactive) and the GI50 [14] was > 100 µM (inactive). For the same molecule, the GI50 [44] was > 100 µM (inactive), the GI50 [15] was > 100 µM and the GI50 [45] was > 100 µM (inactive). For the same molecule, the GI50 [46] was > 100 µM (inactive), the GI50 [17] was > 100 µM (inactive) and the GI50 [47] was > 100 µM (inactive). For the same molecule, the GI50 [48] was > 100 µM (inactive), the GI50 [49] was > 100 µM (inactive) and the GI50 [50] was > 100 µM (inactive). The GI50 [51] was 33.9 µM (inactive), the GI50 [18] was > 100 µM (inactive) and the GI50 [52] was > 100 µM (inactive). For the same molecule, the GI50 [53] was > 100 µM (inactive), the GI50 [19] was > 100 µM (inactive) and the GI50 [20] was > 100 µM (inactive). The GI50 [54] was > 100 µM (inactive), the GI50 [21] was > 100 µM (inactive) and the GI50 [22] was > 100 µM (inactive). For the same molecule, the GI50 [55] was > 100 µM (inactive), the GI50 [23] was > 100 µM (inactive) and the GI50 [24] was > 100 µM (inactive).
In the case of `N[C@H]1CCC[C@@H](O)C1O` (some centres not stated), the GI50 [1] is reported as > 100 µM (inactive), the GI50 [2] is reported as > 100 µM (inactive) and the GI50 [3] is reported as > 100 µM (inactive). For the same molecule, the GI50 [4] was > 100 µM (inactive), the GI50 [5] was > 100 µM (inactive) and the GI50 [26] was > 100 µM (inactive). The GI50 [27] was > 100 µM (inactive), the GI50 [6] was > 100 µM (inactive) and the GI50 [28] was > 100 µM (inactive). For the same molecule, the GI50 [29] was > 100 µM (inactive), the GI50 [30] was > 100 µM (inactive) and the GI50 [31] was > 100 µM (inactive). For the same molecule, the GI50 [7] was > 100 µM (inactive), the GI50 [8] was > 100 µM (inactive) and the GI50 [32] was > 100 µM (inactive). For the same molecule, the GI50 [33] was > 100 µM (inactive), the GI50 [36] was > 100 µM (inactive) and the GI50 [10] was > 100 µM (inactive). The GI50 [37] was > 100 µM (inactive), the GI50 [56] was > 100 µM (inactive) and the GI50 [38] was > 100 µM (inactive). The GI50 [39] was > 100 µM (inactive), the GI50 [13] was > 100 µM (inactive) and the GI50 [41] was > 100 µM (inactive). For the same molecule, the GI50 [42] was > 100 µM (inactive), the GI50 [43] was > 100 µM (inactive) and the GI50 [44] was > 100 µM (inactive). For the same molecule, the GI50 [15] was > 100 µM, the GI50 [46] was > 100 µM (inactive) and the GI50 [16] was > 100 µM (inactive). For the same molecule, the GI50 [57] was > 100 µM (inactive), the GI50 [48] was > 100 µM (inactive) and the GI50 [49] was > 100 µM (inactive). The GI50 [50] was > 100 µM (inactive), the GI50 [18] was > 100 µM (inactive) and the GI50 [52] was > 100 µM (inactive). For the same molecule, the GI50 [53] was > 100 µM (inactive), the GI50 [19] was > 100 µM (inactive) and the GI50 [54] was > 100 µM (inactive). The GI50 [21] was > 100 µM (inactive), the GI50 [22] was > 100 µM (inactive) and the GI50 [55] was > 100 µM (inactive). The GI50 [23] was > 100 µM (inactive) and the GI50 [24] was > 100 µM (inactive).
